Assays:
mouse = assay: Toxicity test, intraperitoneal; format: in vivo; conditions: 100 mg/kg
[1] = tested on: bone marrow cells of BALB/c mice; assay: Enhancing proliferation of bone marrow cells of mice (MTT reduction method); format: cell-based, mouse; conditions: concentration giving 1.3 or more times the proliferation of the group without test compound; 3 days incubation
Experimental: To an RPMI 1640 culture medium [Bio-Wittaker Inc. (hereinafter abbreviated as BW), USA] containing 2×10^6 /ml of bone marrow cells of BALB/c mice, 2 mM of L-glutamine, 20 ug/ml of gentamicin (Flow Laboratories, Inc., Scotland), 10% fetal calf serum (BW, USA) was added a test compound in an adequate concentration, which was incubated at 37° C. for 3 days in 5% carbon dioxide in air followed by determination of proliferation of the bone marrow cells by the MTT reduction method [Tada et al., Journal of Immunological Methods, Vol. 93, p.157, 1986].

[2] = tested on: peripheral blood leukocytes of CDF1/Crj mice; assay: Enhancing the number of leukocytes in cyclophosphamide-treated mice; format: in vivo, mouse; conditions: cyclophosphamide 150 mg/kg p.o., then compound 0.063 mg/kg/day s.c. for 5 days; mice without cyclophosphamide = 100%
Experimental: Six week old female CDF1/Crj mice (5 animals/group) were subjected to the experiment. […] From the next day, each animal was administered subcutaneously with the compound suspended in 5% glucose at the following dosages for five days once a day. On the next day after completion of the administration, about 100 μl of peripheral blood was collected from orbital vein using an EDTA-treated glass capillary. Then, the number of lekocytes was counted using a automatic cell analyzer (Sysmex K-2000, Toa Medical Electronics, Japan)

In the case of “(2S,6R)-2-amino-6,7-bis(PamO)-4-THT-Gly-Gly-Gly-Glu-Thr-Thr-OH [Compound 3]”, the Mortality (mouse) was “No mouse administered intraperitoneally with Compound 3 at a dose of 100 mg/kg was found dead”.

In the case of “(2R,6R)-2-amino-6,7-bis(PamO)-4-THT-NH(CH2)7 CO-Glu-OH hydrochloride [Compound 36]”, the “Minimal Effective Concentration (MEC)” value [1] was < 0.156 ng/mL.

With “(2R,6R)-2-amino-6,7-bis(PamO)-4-THT-Gly-Gly-Gly-Glu-Thr-Thr-OH [Compound 2]” the “Minimal Effective Concentration (MEC)” value [1] was < 0.156 ng/mL and the Number of leukocytes [2] was 102%.

Source: patent publication US5478808A, “2-amino-6,7-dihydroxy-4-thiaheptanoic acid derivatives, production and use thereof” (Takeda Chemical Industries, Ltd., priority 1992, dated 1995)
